Data from publication PMC6009935 (Journal of Enzyme Inhibition and Medicinal Chemistry, 2017).
Read-outs that look alike come from different tables or passages of the source.

Columns and labels:
DOR = molecular target: T1, DOR (Rattus norvegicus, UniProt P33533); experiment: Radioligand competition binding with [3H]IleDelt II
T1 construct: a: performed in rat whole brain membrane homogenates; from tissue; host or cells: Wistar rat whole brain membrane homogenate
Experimental: (§1) Tris-HCl, EGTA, NaCl, MgCl2 x 6H2O, GDP, the GTP analogue GTPγS, were purchased from Sigma-Aldrich (Budapest, Hungary). Fatty acid free bovine serum albumin (BSA) was purchased from Serva (Heidelberg, Germany). Naloxone was kindly provided by the company Endo Laboratories DuPont de Nemours (Wilmington, DE, USA). HS665 was provided by Schmidhammer’s group (University of Innsbruck, Austria). […]
(§2) purchased from Tocris Bioscience (Bristol, UK).
(§3) DMSO. All compounds were stored in 1 mM stock solution at -20 °C. The radiolabelled GTP analogue, [35S]GTPγS (specific activity: 1000 Ci/mmol) were purchased from Hartmann Analytic (Braunschweig, Germany). [3H]DAMGO (specific activity: 38.8 Ci/mmol),12 [3H]IleDelt II (specific activity: 19,6 Ci/mmol), [3H]WIN55,212-2 (specific activity: 13,1 Ci/mmol) and [3H]HS665 (specific activity: 36.62 Ci/mmol),3 were radiolabeled by the Laboratory of Chemical Biology group in BRC (Szeged, Hungary).
(§4) For membrane homogenate preparations male and female Wistar rats (250-300 g body weight) and male guinea pigs (~700 g body weight, LAL/HA/BR strain) were used. Rats were housed in the local animal house of BRC (Szeged, Hungary), while guinea pigs were housed in LAB-ÁLL Bt.
(§5) (Budapest, Hungary). All the animals were kept in a temperature controlled room (21-24 °C) under a 12:12 light and dark cycle and were provided with water and food ad libitum. All housing and experiments were conducted in accordance with the European Communities Council Directives (2010/63/EU) and the Hungarian Act for the Protection of Animals in Research (XXVIII.tv. 32.§).
(§6) The total number of animals as well as their suffering was minimized.
(§7) Rat and guinea pig brain membrane homogenate preparation for binding assays Rats and guinea pigs were decapitated and their brains were quickly removed. The brains were prepared for membrane preparation as previously described,4 and partly used for binding experiments and partly were further prepared for the [35S]GTPγS binding experiments. Briefly the brains were homogenized, centrifuged in ice-cold 50 mM Tris-HCl (pH 7.4) buffer and incubated at 37 °C for 30 min in a shaking water-bath. After incubation the centrifugation was repeated as described above and the final pellet was suspended in 50 mM Tris-HCl pH 7.4 buffer containing 0.32 M sucrose, and stored at -80 °C. For the [35S]GTPγS binding experiments the final pellet of rat […]
(§8) brain membrane homogenate was suspended in ice-cold TEM (Tris-HCl, EGTA, MgCl2) and stored at -80 °C for further use.
(§9) Radioligand competition binding experiments
(§10) Aliquots of frozen rat brain membrane homogenates were centrifuged (18 000 rpm, 20 min, 4 °C) to remove sucrose and the pellets were suspended in 50 mM Tris-HCl buffer (pH 7.4). Membranes containing 0.4-0.8 mg/mL of protein were incubated in a final volume of 1 mL in the presence of unlabeled 5, 10 and 9 in increasing concentrations (10-11-10-5 M) in the presence of the appropriate radioligand in ~1 nM concentrations at certain temperature and amount of time depending on the radioligand ([3H]DAMGO and [3H]IleDelt II: 35 °C for 45 min; [3H]HS665: 30 °C, 45 min; [3H]WIN55,212-2: 30 °C for 60 min). Experiments performed with [3H]HS665 where incubated […]
(§11) more kappa receptors than the rat brain), while the rest of the radioligands were incubated together with rat whole brain membrane homogenates. Additionally, in experiments performed with […]
(§12) increasing concentrations (10-11-10-5 M) together with 50 mM Tris/HCl, 2.5 mM EGTA, 5 mM MgCl2 and 0.5 mg/mL fatty acid free BSA (pH 7.4). The level of non-specific binding was […]
(§13) binding was determined in the absence of unlabeled compounds. The reaction was terminated by rapid filtration under vacuum (Brandel M24R Cell Harvester), and washed three times with 5 mL ice-cold 50 mM Tris-HCl or 50 mM Tris/HCl, 2.5 mM EGTA, 5 mM MgCl2, 0.5 % BSA (pH 7.4) in case of [3H]WIN55,212-2. The filtration was accomplished through Whatman GF/C ([3H]DAMGO, [3H]IleDelt II and [3H]HS665) or GF/B ([3H]WIN55,212-2) glass fibers. In case of […]

MOR = molecular target: T2, MOR (Rattus norvegicus, UniProt P33535); experiment: Radioligand competition binding with [3H]DAMGO; settings: for Ki: Cheng-Prusoff; for IC50: read-out: logIC50 ± S.E.M., [3H]DAMGO (MOR) (converted)
T2 construct: a: performed in rat whole brain membrane homogenates; from tissue; host or cells: Wistar rat whole brain membrane homogenate
Experimental: as §1, §2, §3, §4, §5, §6, §7, §8, §9, §10, §11, §12, §13

[1] = tested on: hypothalamic synaptosomes; experiment: In vitro hypothalamic perfusion test (neurotransmitter release); assay type: cell-based, rat; settings: 10 µM
Experimental: was evaluated with the analysis of variance followed by Dunnett’s post-hoc comparisons using GraphPad Prism 6.03 software. Statistical significance was assumed at least for P<0.05.
In vitro hypothalamic perfusion test
Hypothalamic synaptosomes were obtained from 18 male adult Sprague-Dawley rats (290-340 g), as previously described.9
Then, the synaptosome suspension was incubated at 37°C, under O2/CO2 95%/5%, pH 7.35-7.45, in Krebs-Ringer buffer (mM: NaCl 125, KCl 3, MgSO4 1.2, CaCl2 1.2, Tris-HCl 10, glucose 10, ascorbic acid 1). After the incubation period, identical aliquots of synaptosome suspension (1.24 mg protein determined by bicinchoninic acid protein assay) were layered onto 0.8 μm Millipore filters, placed into 37°C water-jacketed superfusion chambers [18 different chambers for each experiment and perfused with Krebs-Ringer buffer (0.6 mL/min)], and perfusate was collected (2 min fractions) to detect released neurotransmitters by HPLC coupled to electrochemical detection. The analytical conditions for amine identification and quantification in the perfusate fractions were selected on the basis of previous experiments performed on hypothalamus homogenate.10
The experimental protocol includes three phases: 10 min perfusion with Krebs-Ringer buffer in […]
buffer (stimulus); 8 min perfusion with Krebs-Ringer buffer for return to basal condition (post-stimulus). Perfusate was collected starting from the 8th minute of pre-stimulus. Perfusate aliquots were stored at -80°C, then lyophilized and finally suspended in 1 mL HPLC grade water for neurotransmitter quantification. Neurotransmitter release was expressed as mean percentage release recovered in the stimulus and post-stimulus, compared with initial basal conditions (pre-stimulus

[2] = rat whole brain membrane homogenates
[3] = rat whole brain membrane homogenates, logarithm of IC50, negative sign printed

T2 sequence (P33535 whole entry): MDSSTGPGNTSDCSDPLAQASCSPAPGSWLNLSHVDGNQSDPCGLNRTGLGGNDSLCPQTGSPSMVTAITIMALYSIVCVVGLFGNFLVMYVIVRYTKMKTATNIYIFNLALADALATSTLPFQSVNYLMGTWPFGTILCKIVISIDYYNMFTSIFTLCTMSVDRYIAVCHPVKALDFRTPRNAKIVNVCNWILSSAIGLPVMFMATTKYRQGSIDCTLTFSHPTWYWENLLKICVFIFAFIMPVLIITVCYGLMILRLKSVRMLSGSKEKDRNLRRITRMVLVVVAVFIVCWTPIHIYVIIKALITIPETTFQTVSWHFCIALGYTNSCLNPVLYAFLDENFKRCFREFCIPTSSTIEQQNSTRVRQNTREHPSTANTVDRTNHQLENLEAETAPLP
T1 sequence (P33533 whole entry): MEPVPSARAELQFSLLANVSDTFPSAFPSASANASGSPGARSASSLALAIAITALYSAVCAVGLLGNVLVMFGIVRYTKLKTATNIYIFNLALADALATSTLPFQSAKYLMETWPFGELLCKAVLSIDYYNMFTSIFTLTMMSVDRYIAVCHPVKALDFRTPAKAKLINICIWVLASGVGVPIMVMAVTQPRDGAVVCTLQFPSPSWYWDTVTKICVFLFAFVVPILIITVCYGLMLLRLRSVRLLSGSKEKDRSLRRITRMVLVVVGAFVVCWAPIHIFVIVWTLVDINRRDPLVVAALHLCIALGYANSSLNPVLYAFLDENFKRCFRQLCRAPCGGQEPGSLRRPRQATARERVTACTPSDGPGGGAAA

| SMILES | DOR binding affinity in words (DOR) | IC50 (DOR) | Ki (DOR) | MOR binding affinity in words (MOR) | Ki (MOR; [2]) | IC50 (MOR; [3]) | effect on dopamine (DA) release [1] | effect on norepinephrine (NE) release [1] | effect on serotonin (5-HT) release [1] | Ki (DOR; rat whole brain membrane homogenates, Cheng-Prusoff) | IC50 (DOR; rat whole brain membrane homogenates, logarithm of IC50, negative sign printed, read-out: logIC50 ± S.E.M., [3H]IleDelt II (DOR) (converted)) | Selectivity ratio DOR/MOR (MOR; ratio of Ki values) | Selectivity ratio KOR/MOR (MOR; ratio of Ki values) | logIC50 ± S.E.M., [3H]IleDelt II (DOR) (DOR; [3]) | logIC50 ± S.E.M., [3H]DAMGO (MOR) (MOR; [3]) |
| --- | --- | --- | --- | --- | --- | --- | --- | --- | --- | --- | --- | --- | --- | --- | --- |
| C[C@@H](NC(=O)[C@@H](N)Cc1ccc(O)cc1)C(=O)NCC(=O)N[C@@H](Cc1ccccc1)C(N)=O [Compound 10, Tyr-D-Ala-Gly-Phe-NH2, reference compound] | high affinity | 316 nM | 107 nM | high affinity | 1 nM | 6.17 nM | inhibitory effect | significant stimulatory effect | inhibitory effect |  |  |  |  |  |  |
| Cc1c(C(=O)NC2CCN(C(=O)[C@H](Cc3ccccc3)NC(=O)CNC(=O)[C@@H](C)NC(=O)[C@@H](N)Cc3ccc(O)cc3)CC2)nn(-c2ccc(Cl)cc2Cl)c1-n1cccc1 [Compound 9] | loss in affinity |  |  | loss in affinity | 34.4 nM | 204 nM | reduced inhibitory effect | significant stimulatory effect | no significant effects | 443 nM | 1290 nM | 12.88 | 4.93 |  |  |
| Cc1c(C(=O)NC2CCNCC2)nn(-c2ccc(Cl)cc2Cl)c1-n1cccc1 [Compound 5] | did not bind |  |  | did not bind |  |  | decreased |  |  |  |  |  |  | ambiguous | ambiguous |
